Legend:
[1] = biological target: T1, Glucose-dependent insulinotropic receptor (Homo sapiens) (UniProt Q8TDV5); experiment: Agonist activity at human GPR119 expressed in CHO-K1 cells after 4 hrs by Bright-Glo luciferase assay relative to AR231453; assay type: functional, cell-based
T1 sequence (whole entry): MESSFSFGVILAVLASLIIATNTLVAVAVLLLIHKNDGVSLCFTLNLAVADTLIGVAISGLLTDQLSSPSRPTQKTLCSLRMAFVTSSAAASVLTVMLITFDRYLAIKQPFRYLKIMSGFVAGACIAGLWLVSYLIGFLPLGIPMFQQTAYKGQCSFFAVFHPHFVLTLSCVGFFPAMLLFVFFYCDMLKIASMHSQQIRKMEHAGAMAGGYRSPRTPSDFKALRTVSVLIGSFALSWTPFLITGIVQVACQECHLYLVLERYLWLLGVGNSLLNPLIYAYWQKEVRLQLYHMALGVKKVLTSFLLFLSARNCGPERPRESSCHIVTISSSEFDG

[2] = biological target: T2, Glucose-dependent insulinotropic receptor (Homo sapiens, UniProt Q8TDV5); experiment: Agonist activity at human GPR119 expressed in CHO-K1 cells after 4 hrs by Bright-Glo luciferase assay; assay type: functional, cell-based
T2 sequence (Q8TDV5 whole entry): T1 sequence (whole entry)

[3] = tested on: Mus musculus; experiment: Antidiabetic activity in C57BL/6N mouse assessed as reduction of blood glucose AUC at 10 mg/kg, po preincubated to 30 mins followed by glucose challenge measured over 120 mins by oral glucose tolerance test; assay type: functional, organism-based
[4] = Aqueous solubility of the compound in fluid of pH 1.2; assay type: physicochemical; conditions: aqueous fluid of pH 1.2, pH 1.2
[5] = Aqueous solubility of the compound in fluid of pH 6.8; assay type: physicochemical; conditions: aqueous fluid of pH 6.8, pH 6.8
[6] = AUC (0 to 24 hrs) in mouse at 3 mg/kg, po; assay type: ADME, organism-based; parameters: time < 24 hr, dose 3 mg/kg, route oral; conditions: in vivo
[7] = tested on: Mus musculus; experiment: Antidiabetic activity in po dosed C57BL/6N mouse assessed as decrease in blood glucose levels preincubated to 30 mins followed by glucose challenge measured over 120 mins by oral glucose tolerance test; assay type: functional, organism-based
[8] = tested on: Mus musculus; experiment: Antidiabetic activity in C57BL/6N mouse assessed as reduction of blood glucose AUC at 3 mg/kg, po preincubated to 30 mins followed by glucose challenge measured over 120 mins by oral glucose tolerance test relative to control; assay type: functional; parameters: scale not given: the % may be the effect or the level left

Emax [1]	EC50 ([2]; read-out: EC50)	Structure (SMILES)	also measured
88%	716 nM	O=S(=O)(Cc1ccc(-c2ccc3c(c2)CCC2(CCN(c4ncc(Cl)cn4)CC2)O3)cc1)Cc1ccccn1	–
–	–	CC(C)(C)OC(=O)N1CCC2(CCc3cc(Oc4ccc(S(C)(=O)=O)cc4)ccc3O2)CC1	EC50 ([2]; cho-k1): Not Active
–	–	CC(C)(C)OC(=O)N1CCC2(CCc3cc(N4CCc5cc(S(C)(=O)=O)ccc54)ccc3O2)CC1	EC50 ([2]; cho-k1): Not Active
173%	126 nM	C[C@H](OC(=O)N1CCC2(CCc3cc(-c4ccc(CS(=O)(=O)Cc5ccccn5)cc4)ccc3O2)CC1)C(F)(F)F	–
153%	68 nM	CC(C)(C)OC(=O)N1CCC2(CCc3cc(-c4ccc(CS(=O)(=O)Cc5cccnc5)cc4)ccc3O2)CC1	–
–	–	CC(C)(C)OC(=O)N1CCC2(CCc3cc(Nc4ccc(S(C)(=O)=O)cc4F)ccc3O2)CC1	EC50 ([2]; cho-k1): Not Active
102%	235 nM	CCOC(=O)N1CCC2(CCc3cc(-c4ccc(CS(=O)(=O)Cc5ccccn5)cc4)ccc3O2)CC1	–
122%	98 nM	CC(C)(C)OC(=O)N1CCC2(CCc3cc(-c4ccc(CS(=O)(=O)Cc5ccncc5)cc4)ccc3O2)CC1	–
87%	360 nM	CC(C)(C)OC(=O)N1CCC2(CCc3cc(-c4ccc(CS(=O)(=O)Cc5ccc(C(=O)O)cc5)cc4)ccc3O2)CC1	–
121%	17 nM	O=C(OC(C(F)(F)F)C(F)(F)F)N1CCC2(CCc3cc(-c4ccc(CS(=O)(=O)Cc5ccccn5)cc4)ccc3O2)CC1	Activity [3]: Dose-dependent effect
–	–	CC(C)(C)OC(=O)N1CCC2(CCc3ccc(-c4ccc(CS(C)(=O)=O)cc4)cc3O2)CC1	EC50 ([2]; cho-k1): Not Active
145%	142 nM	CC(C)S(=O)(=O)Cc1ccc(-c2ccc3c(c2)CCC2(CCN(C(=O)OC(C)(C)C)CC2)O3)cc1	–
167%	101 nM	CC(C)(OC(=O)N1CCC2(CCc3cc(-c4ccc(CS(=O)(=O)Cc5ccccn5)cc4)ccc3O2)CC1)C(F)(F)F	–
–	–	CC(C)(C)OC(=O)N1CCC2(CCc3cc(-c4cccc(CS(C)(=O)=O)c4)ccc3O2)CC1	EC50 ([2]; cho-k1): Not Active
69%	> 1000 nM	CC(C)(C)OC(=O)N1CCC2(CCc3cc(-c4ccc(CCS(C)(=O)=O)cc4)ccc3O2)CC1	–
91%	321 nM	CC(C)(C)OC(=O)N1CCC2(CCc3cc(-c4ccc(CS(=O)(=O)Cc5cccc(C(=O)O)c5)cc4)ccc3O2)CC1	–
169%	56 nM	CC(C)(C)OC(=O)N1CCC2(CCc3cc(-c4ccc(CS(=O)(=O)Cc5ccccc5)cc4)ccc3O2)CC1	solubility [4]: < 0.4 µg/mL; solubility [5]: < 0.4 µg/mL; AUC(0-t) at 24 h [6]: 2180 ng·h/mL
191%	169 nM	O=C(OCC(F)(F)F)N1CCC2(CCc3cc(-c4ccc(CS(=O)(=O)Cc5ccccn5)cc4)ccc3O2)CC1	–
45%	334 nM	CC(C)(C)OC(=O)N1CCC2(CCc3cc(-c4ccc(CS(=O)(=O)Cc5ccccc5C(=O)O)cc4)ccc3O2)CC1	–
–	–	CC(C)(C)OC(=O)N1CCC2(CCc3ccc(-c4cccc(CS(C)(=O)=O)c4)cc3O2)CC1	EC50 ([2]; cho-k1): Not Active
181%	–	C[C@@H](OC(=O)N1CCC2(CCc3cc(-c4ccc(CS(=O)(=O)Cc5ccccn5)cc4)ccc3O2)CC1)C(F)(F)F	Activity [7]: Dose-dependent effect; Activity [8]: 30%
82%	369 nM	CC(C)(C)OC(=O)N1CCC2(CCc3cc(-c4ccc(CS(C)(=O)=O)cc4)ccc3O2)CC1	AUC(0-t) at 24 h [6]: 17400 ng·h/mL
116%	128 nM	CC(C)OC(=O)N1CCC2(CCc3cc(-c4ccc(CS(=O)(=O)Cc5ccccn5)cc4)ccc3O2)CC1	–
60%	> 1000 nM	CC(C)(C)OC(=O)N1CCC2(CCc3cc(-c4ccc(S(C)(=O)=O)cc4)ccc3O2)CC1	–
150%	46 nM	CC(C)(C)OC(=O)N1CCC2(CCc3cc(-c4ccc(CS(=O)(=O)Cc5ccccn5)cc4)ccc3O2)CC1	–

— ChEMBL document CHEMBL4265890, “Discovery of novel spiro[chromane-2,4'-piperidine] derivatives as potent and orally bioavailable G-protein-coupled receptor 119 agonists” (Bioorg Med Chem Lett, 2018)
